Data reported in US8741944B2, “Anti-infective agents against intracellular pathogens” (priority 2007, dated 2014).
Where two headings read alike, the source gives them in different places.

Tests used:
SF-268 (CNS Cancer) = assay: NCI DTP tumor cell line screen (SRB), SF-268
Protocol: (§1) For a typical screening experiment, cells are inoculated into 96 well microtiter plates in 100 μL at plating densities ranging from 5,000 to 40,000 cells/well depending on the doubling time of individual cell lines. After cell inoculation, the microtiter plates are incubated at 37° C., 5% CO2, 95% air and 100% relative humidity for 24 h prior to addition of experimental drugs.
(§2) After 24 h, two plates of each cell line are fixed in situ with TCA, to represent a measurement of the cell population for each cell line at the time of drug addition (Tz). Experimental drugs are solubilized in dimethyl sulfoxide at 400-fold the desired final maximum test concentration and stored frozen prior to use. At the time of drug addition, an aliquot of frozen concentrate is thawed and diluted to twice the desired final maximum test concentration with complete medium containing 50 μg/ml gentamicin. Additional four, 10-fold or ½ log serial dilutions are made to provide a total of five drug concentrations plus control. Aliquots of 100 μl of these different drug dilutions are added to the appropriate microtiter wells already containing 100 μl of medium, resulting in the required final drug concentrations.
(§3) Following drug addition, the plates are incubated for an additional 48 h at 37° C., 5% CO2, 95% air, and 100% relative humidity. For adherent cells, the assay is terminated by the addition of cold TCA. Cells are fixed in situ by the gentle addition of 50 μl of cold 50% (w/v) TCA (final concentration, 10% TCA) and incubated for 60 minutes at 4° C. The supernatant is discarded, and the plates are washed five times with tap water and air dried. Sulforhodamine B (SRB) solution (1001) at 0.4% (w/v) in 1% acetic acid is added to each well, and plates are incubated for 10 minutes at room temperature. After staining, unbound dye is removed by washing five times with 1% acetic acid and the plates are air dried. Bound stain is subsequently solubilized with 10 mM trizma base, and the absorbance is read on an automated plate reader at a wavelength of 515 nm. For suspension cells, the methodology is the same except that the assay is terminated by fixing settled cells at the bottom of the wells by gently adding 50 μl of 80% TCA (final concentration, 16% TCA). Using the seven absorbance measurements [time zero, (Tz), control growth, (C), and test growth in the presence of drug at the five concentration levels (Ti)], the percentage growth is calculated at each of the drug concentrations levels. Percentage growth inhibition is calculated as: [(Ti−Tz)/(C−Tz)]×100 for concentrations for which Ti>/=Tz [(Ti−Tz)/Tz]×100 for concentrations for which Ti<Tz
(§4) Three dose response parameters are calculated for each experimental agent. […] The drug concentration resulting in total growth inhibition (TGI) is calculated from Ti=Tz. […] Values are calculated for each of these three parameters if the level of activity is reached; however, if the effect is not reached or is exceeded, the value for that parameter is expressed as greater or less than the maximum or minimum concentration tested.

SF-295 (CNS Cancer) = assay: NCI DTP tumor cell line screen (SRB), SF-295
Protocol: as §1, §2, §3, §4

U251 (CNS Cancer) = assay: NCI DTP tumor cell line screen (SRB), U251
Protocol: as §1, §2, §3, §4

[1] = tested on: NCI-H226 (Non-Small Cell Lung Cancer)
Protocol: as §1, §2, §3, §4

BT-549 (Breast Cancer) = assay: NCI DTP tumor cell line screen (SRB), BT-549
Protocol: as §1, §2, §3, §4

PC-3 cells [2] = assay: Cell viability analysis, MTT assay in PC-3 cells; format: cell-based, human; conditions: inducing apoptotic death in PC-3 cells / PC-3 cell viability; read-out: IC50 PC-3
Protocol: Cell Culture PC-3 (p53−/−) human androgen-non-responsive prostate cancer cells were purchased from the American […] (Manassas, Va.). Cells were cultured in RPMI 1640 medium (Gibco, Grand Island, N.Y.) supplemented with 10% fetal bovine serum (FBS; Gibco) at 37° C. in a humidified incubator containing 5% CO2.
Controls received DMSO vehicle at a concentration equal to that in drug-treated cells. The medium was removed, replaced by 200 μl of 0.5 mg/ml of MTT in 10% FBS-containing RPMI-1640 medium, and cells were incubated in the CO2 incubator at 37° C. for 2 h. Supernatants were removed from the wells, and the reduced MTT dye was solubilized in 200 μL/well DMSO. Absorbance at 570 nm was determined on a plate reader.

PC-3 cells [3] = assay: Apoptosis analysis in PC-3 cells (DNA fragmentation ELISA, PARP cleavage); format: cell-based, human; conditions: 1% FBS-containing medium
Protocol: Apoptosis analysis Two methods were used to assess drug-induced apoptotic cell death: detection of DNA fragmentation by the Cell Death Detection ELISA kit (Roche Diagnostics. Mannheim, Germany) and Western blot analysis of poly-(ADP-ribose)polymerase (PARP) cleavage. […] In brief, 4×10^5 PC-3 cells were cultured in a T-25 flask for 24 h before treatment. Cells were treated with the DMSO vehicle or the test agent at the indicated concentrations for 6-24 h, collected, and cell lysates equivalent to 2×10^3 PC-3 cells were used in the ELISA. For the PARP cleavage assay, drug-treated cells were collected 4-8 h post-treatment, washed with ice-cold PBS, and resuspended in lysis buffer containing 20 mM Tris-HCl, pH 8, 137 mM NaCl, 1 mM CaCl2, 10% glycerol, 1% Nonidet P-40, 0.5% deoxycholate, 0.1% SDS, 100 μM 4-(2-aminoethyl)benzenesulfonyl fluoride, leupeptin at 10 μg/mL, and aprotinin at 10 μg/mL. Soluble cell lysates were collected after centrifugation at 10,000 g for 5 min. Equivalent amounts of proteins (60-100 μg) from each lysate were resolved in 8% SDS-polyacrylamide gels. Bands were transferred to nitrocellulose membranes, and analyzed by immunoblotting with anti-PARP antibody.

COX-2 = COX-2 (Homo sapiens (Human), UniProt P35354); assay: COX-2 inhibitory activity; format: biochemical; conditions: concentrations up to 50 μM
phospho-Akt = assay: Western blot analysis of Akt and phospho-Akt in PC-3 cells; format: cell-based, human; conditions: even at 1 μM
Protocol: Immunoblotting. The general procedure for the Western blot analysis of Akt and phospho-Akt is described as follows. Cells were washed in PBS, resuspended in SDS sample buffer sonicated by an ultrasonic sonicator for 5 see, and boiled for 5 min. After brief centrifugation, equivalent protein concentrations from the soluble fractions were resolved in 10% SDS-polyacrylamide gels on a Minigel apparatus, and transferred to a nitrocellulose membrane using a semi-dry transfer cell. The transblotted membrane was washed three times with TBS containing 0.05% Tween 20 (TBST). After blocking with TBST containing 5% nonfat milk for 60 min., the membrane was incubated with the primary antibody at 1:1,000 dilution in TBST-5% low fat milk at 4° C. for 12 h, and was then washed three times with TBST. The membrane was probed with goat anti-rabbit IgG-HRP conjugates (1:1,000) for 1 h at room temperature, and was washed with TBST three times. The immunoblots were visualized by enhanced chemiluminescence.

recombinant PDK-1 = recombinant PDK-1 (Homo sapiens (Human), UniProt O15530); assay: PDK-1 kinase activity (PDK-1 kinase assay kit, cell-free); format: biochemical
Protocol: PDK-1 kinase activity This in vitro assay was performed using a PDK-1 kinase assay kit (Upstate, Lake Placid, N.Y.) according to the vendor's instructions. This cell-free assay is based on the ability of recombinant PDK-1, in the presence of DMSO vehicle or the test agent, to activate its downstream kinase serum- and glucocorticoid-regulated kinase (SGK.) which, in turn, phosphorylates the Akt/SGK-specific peptide substrate RPRAATF with [γ-^32]-ATP. […] The reported values represent the means of two independent determinations.

Akt = assay: Direct inhibition of immunoprecipitated Akt kinase activity; format: biochemical, human

Chain of recombinant PDK-1 (O15530 whole entry, looked up): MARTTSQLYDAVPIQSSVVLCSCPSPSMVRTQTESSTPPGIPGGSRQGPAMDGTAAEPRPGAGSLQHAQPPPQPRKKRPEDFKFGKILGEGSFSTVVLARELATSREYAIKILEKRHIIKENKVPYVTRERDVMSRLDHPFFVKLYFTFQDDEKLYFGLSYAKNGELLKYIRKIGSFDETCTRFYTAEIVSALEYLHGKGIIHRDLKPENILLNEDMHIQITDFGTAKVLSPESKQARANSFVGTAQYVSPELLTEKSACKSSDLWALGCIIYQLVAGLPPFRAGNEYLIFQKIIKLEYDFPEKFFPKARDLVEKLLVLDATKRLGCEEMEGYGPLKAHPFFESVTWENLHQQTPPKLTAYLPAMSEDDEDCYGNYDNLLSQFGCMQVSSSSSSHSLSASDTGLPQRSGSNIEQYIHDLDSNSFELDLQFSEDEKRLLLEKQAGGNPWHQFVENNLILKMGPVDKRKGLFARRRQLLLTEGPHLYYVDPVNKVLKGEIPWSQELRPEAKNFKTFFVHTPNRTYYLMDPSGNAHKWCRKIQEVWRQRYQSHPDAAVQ
Chain of COX-2 (P35354 whole entry, looked up): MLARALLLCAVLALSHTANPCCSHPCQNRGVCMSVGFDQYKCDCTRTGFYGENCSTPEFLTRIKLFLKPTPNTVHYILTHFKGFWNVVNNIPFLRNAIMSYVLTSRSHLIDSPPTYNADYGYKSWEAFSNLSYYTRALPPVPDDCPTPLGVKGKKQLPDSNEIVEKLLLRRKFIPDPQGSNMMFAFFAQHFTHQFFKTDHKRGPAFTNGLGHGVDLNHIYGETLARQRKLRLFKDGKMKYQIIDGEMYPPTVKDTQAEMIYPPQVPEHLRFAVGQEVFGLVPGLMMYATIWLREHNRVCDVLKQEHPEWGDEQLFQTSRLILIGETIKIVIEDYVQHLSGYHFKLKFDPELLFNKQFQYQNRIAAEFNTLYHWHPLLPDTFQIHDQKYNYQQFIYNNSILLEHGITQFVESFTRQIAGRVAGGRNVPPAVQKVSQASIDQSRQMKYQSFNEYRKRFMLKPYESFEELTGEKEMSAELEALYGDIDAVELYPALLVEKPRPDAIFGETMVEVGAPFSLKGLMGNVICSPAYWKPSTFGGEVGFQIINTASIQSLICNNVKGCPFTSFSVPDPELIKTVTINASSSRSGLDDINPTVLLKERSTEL

## NCC(=O)Nc1ccc(-n2nc(C(F)(F)F)cc2-c2ccc3c(ccc4ccccc43)c2)cc1 [Compound 70, 2-Amino-N-{4-[5-(2-phenanthrenyl)-3-(trifluoromethyl)-1H-pyrazol-1-yl]-phenyl}-acetamide]
SF-268 (CNS Cancer)
  TGI: 4.16E−06
SF-268 (CNS Cancer); Log10 Concentration −4.0
  Mean Optical Densities: 0.280
SF-268 (CNS Cancer); Log10 Concentration −5.0
  Mean Optical Densities: 0.252
  Percent Growth: −33%
SF-268 (CNS Cancer); Log10 Concentration −6.0
  Mean Optical Densities: 0.789
  Percent Growth: 54%
SF-268 (CNS Cancer); Log10 Concentration −7.0
  Mean Optical Densities: 0.930
  Percent Growth: 72%
SF-268 (CNS Cancer); Log10 Concentration −8.0
  Mean Optical Densities: 1.016
  Percent Growth: 84%
SF-295 (CNS Cancer)
  TGI: 3.71E−06
SF-295 (CNS Cancer); Log10 Concentration −4.0
  Mean Optical Densities: 0.287
SF-295 (CNS Cancer); Log10 Concentration −5.0
  Mean Optical Densities: 0.225
  Percent Growth: −47%
SF-295 (CNS Cancer); Log10 Concentration −6.0
  Mean Optical Densities: 0.915
  Percent Growth: 62%
SF-295 (CNS Cancer); Log10 Concentration −7.0
  Mean Optical Densities: 1.190
  Percent Growth: 96%
SF-295 (CNS Cancer); Log10 Concentration −8.0
  Mean Optical Densities: 1.173
  Percent Growth: 94%
U251 (CNS Cancer)
  TGI: 2.64E−06
U251 (CNS Cancer); Log10 Concentration −4.0
  Mean Optical Densities: 0.320
U251 (CNS Cancer); Log10 Concentration −5.0
  Mean Optical Densities: 0.144
  Percent Growth: −63%
U251 (CNS Cancer); Log10 Concentration −6.0
  Mean Optical Densities: 0.810
  Percent Growth: 46%
U251 (CNS Cancer); Log10 Concentration −7.0
  Mean Optical Densities: 1.139
  Percent Growth: 82%
U251 (CNS Cancer); Log10 Concentration −8.0
  Mean Optical Densities: 1.298
  Percent Growth: 100%
[1]
  TGI: 3.21E−06
[1]; Log10 Concentration −4.0
  Mean Optical Densities: 0.614
[1]; Log10 Concentration −5.0
  Mean Optical Densities: 0.505
  Percent Growth: −58%
[1]; Log10 Concentration −6.0
  Mean Optical Densities: 1.429
  Percent Growth: 59%
[1]; Log10 Concentration −7.0
  Mean Optical Densities: 1.586
  Percent Growth: 98%
[1]; Log10 Concentration −8.0
  Mean Optical Densities: 1.593
  Percent Growth: 100%
BT-549 (Breast Cancer)
  TGI: 2.95E−06
BT-549 (Breast Cancer); Log10 Concentration −5.0
  Mean Optical Densities: 0.143
  Percent Growth: −71%
BT-549 (Breast Cancer); Log10 Concentration −6.0
  Mean Optical Densities: 0.785
  Percent Growth: 63%
BT-549 (Breast Cancer); Log10 Concentration −7.0
  Mean Optical Densities: 0.891
  Percent Growth: 86%
BT-549 (Breast Cancer); Log10 Concentration −8.0
  Mean Optical Densities: 0.912
  Percent Growth: 90%

## 4-[5-(2-Phenanthrenyl)-3-(trifluoromethyl)-1H-pyrazol-1-yl]-phenyl -guanidine [Compound 71]
PC-3 cells [2]
  IC50: 3000 nM
PC-3 cells [3]
  apoptotic death in PC-3 cells (DNA fragmentation and PARP cleavage): induced apoptotic death
COX-2
  COX-2 inhibitory activity: nor was any measurable COX-2 inhibitory activity detected
phospho-Akt
  phospho-Akt level: substantial decrease
Recombinant PDK-1
  increase in PDK-1 inhibition potency over compound 59: five-fold
Akt
  direct inhibitory effect on immunoprecipitated Akt kinase activity: no appreciable direct inhibition
